Test results reported in US9493468B2, “Antifungal 5,6-dihydro-4H-pyrrolo[1,2-a][1,4]benzo-diazepines and 6H-pyrrolo[1,2-a][1,4]benzodiazepines substituted with heterocyclic derivatives” (Janssen Pharmaceutica NV, priority 2011, dated 2016).

Experiments:
Type in all cases: cell-based
Microsporum canis = test: Antifungal activity in vitro, resazurin growth inhibition: Microsporum canis (B68128)
Protocol: (§1) The standard susceptibility screen is performed in 96-well plates (U-bottom, Greiner Bio-One). Serial dilutions (2-fold or 4-fold) of 20 mM compound stock solutions are made in 100% DMSO, followed by an intermediate dilution step in water. These serial dilutions (10 μl) are then spotted onto test-plates that can be stored in the dark at 4° C. for a maximum period of 2 weeks. An adequate broad dose-range is included with 64 μM as the highest in-test concentration. The culture medium RPMI-1640 is supplemented with L-glutamine, 2% glucose and buffered with 3-(N-morpholino)-propanesulfonic acid (MOPS) at pH 7.0±0.1.
(§2) The different fungal species/isolates (Table 3a) are cryopreserved and 1/1000 diluted in medium just prior to use. A standard inoculum of 200 μl containing 10^3 colony-forming unit (cfu) is then added to each well. A positive control (100% growth=fungal culture without antifungal) and a negative control (0% growth ═RPMI-MOPS medium) are included on each plate. Optimal incubation time and temperature are dependent on the fungal species and vary from 24 h for yeasts (37° C.) to one week or more for dermatophytes (27° C.). Inhibition of fungal growth is measured after adding 10 μl of 0.005% (w/v) resazurin (Sigma Aldrich) to each well, based on the principle that living cells convert the non-fluorescent blue resazurin into the pink and fluorescent resorufin, allowing fluorimetric reading (λex 550 nm and λem 590 nm) after an additional incubation period (‘resa’ time mentioned in Table 3a).

[1] = tested on: Trichophyton mentagrophytes; test: Antifungal activity in vitro, resazurin growth inhibition: Trichophyton mentagrophytes (B70554)
Protocol: as §1, §2

Trichophyton rubrum = test: Antifungal activity in vitro, resazurin growth inhibition: Trichophyton rubrum (B68183)
Protocol: as §1, §2

Sporothrix schenkii = test: Antifungal activity in vitro, resazurin growth inhibition: Sporothrix schenkii (B62482)
Protocol: as §1, §2

Aspergillus fumigatus = test: Antifungal activity in vitro, resazurin growth inhibition: Aspergillus fumigatus (B42928)
Protocol: as §1, §2

Candida parapsilosis = test: Antifungal activity in vitro, resazurin growth inhibition: Candida parapsilosis (B66126)
Protocol: as §1, §2

Cryptococcus neoformans = test: Antifungal activity in vitro, resazurin growth inhibition: Cryptococcus neoformans (B66663)
Protocol: as §1, §2

SMILES | Inf. B: Microsporum canis B68128, pIC50 (Microsporum canis) | Inf. G: Trichophyton mentagrophytes B70554, pIC50 [1] | Inf. C: Trichophyton rubrum B68183, pIC50 (Trichophyton rubrum) | Inf. A: Sporothrix schenkii B62482, pIC50 (Sporothrix schenkii) | Inf. E: Aspergillus fumigatus B42928, pIC50 (Aspergillus fumigatus) | Inf. D: Candida parapsilosis B66126, pIC50 (Candida parapsilosis) | Inf. F: Cryptococcus neoformans B66663, pIC50 (Cryptococcus neoformans)
Br.CCn1ccc(C2NCc3c(Cl)cccc3-n3cccc32)n1 (racemic) [Compound 10] | 4.25 | <4.19 | <4.19 | <4.19 | <4.19 | <4.19 | <4.19
Clc1cccc2c1CNC(c1ccccn1)c1cccn1-2 (racemic) [Compound 11] | 4.73 | 4.72 | 4.71 | 4.49 | 4.31 | <4.19 | 4.93
Cc1cccc(C2NCc3c(Cl)cccc3-n3cccc32)n1 (racemic) [Compound 12] | <4.49 | <4.49 | 4.92 | 4.59 | <4.49 | <4.49 | 4.82
CCc1ccc(C2NCc3c(Cl)cccc3-n3cccc32)nc1.Cl (racemic) [Compound 13] | 5.40 | 5.00 | 5.70 | <4.19 | <4.19 | <4.19 | 4.52
CCc1ccc(C2NCc3c(Cl)cccc3-n3cccc32)cn1.Cl (racemic) [Compound 14] | 5.30 | 4.74 | 5.30 | <4.19 | <4.19 | <4.19 | 4.28
Cl.FC(F)(F)c1ccc(C2NCc3ccccc3-n3cccc32)cn1 (racemic) [Compound 15] | 4.25 | 4.56 | 4.70 | <4.19 | <4.19 | <4.19 | 4.92
Cl.FC(F)(F)c1ccc(C2NCc3c(Cl)cccc3-n3cccc32)cn1 (racemic) [Compound 16] | 5.19 | 5.28 | 5.69 | <4.19 | <4.19 | <4.19 | 4.64
Cl.Fc1cccc2c1CNC(c1ccc(C(F)(F)F)nc1)c1cccn1-2 (racemic) [Compound 17] | 4.46 | <4.19 | 4.71 | <4.19 | <4.19 | <4.19 | 4.23
Cc1cccc2c1CNC(c1ccc(C(F)(F)F)nc1)c1cccn1-2.Cl (racemic) [Compound 18] | 5.05 | 4.62 | 5.52 | <4.19 | <4.19 | <4.19 | <4.19
Cl.FC(F)(F)c1ccc(C2NCc3c(Cl)cc(Cl)cc3-n3cccc32)cn1 (racemic) [Compound 19] | 4.95 | 4.57 | 5.65 | <4.19 | <4.19 | <4.19 | 5.02
Br.Clc1cccc2c1CNC(c1ccncc1)c1cccn1-2 (racemic) [Compound 21] | 5.04 |  | 5.52 | 4.70 | <4.19 | <4.19 | 4.66
Br.Clc1ccc2c(c1)CNC(c1ccncc1)c1cccn1-2 (racemic) [Compound 22] | 5.22 |  | 5.10 | <4.19 | <4.19 | <4.19 | 4.32
Br.Clc1ccc2c(c1)-n1cccc1C(c1ccncc1)NC2 (racemic) [Compound 23] | 4.72 | 4.39 | 5.00 | <4.19 | <4.19 | <4.19 | 4.57
Br.Clc1cccc2c1-n1cccc1C(c1ccncc1)NC2 (racemic) [Compound 24] | 4.57 | <4.19 | 4.74 | <4.19 | <4.19 | <4.19 | <4.19
Cc1ncc(C2NCc3c(Cl)cccc3-n3cccc32)cn1.Cl (racemic) [Compound 25] | 4.43 | <4.19 | 4.19 | <4.19 | <4.19 | <4.19 | <4.19
Cl.FC(F)(F)c1ncc(C2NCc3c(Cl)cccc3-n3cccc32)cn1 (racemic) [Compound 26] | 4.92 | 4.44 | 5.10 | <4.19 | <4.19 | <4.19 | <4.19
Cc1ccc(Cl)c2c1-n1cccc1C(c1cnc(C(F)(F)F)nc1)NC2.Cl (racemic) [Compound 27] | <4.90 | <4.90 | <4.90 | <4.90 | <4.90 | <4.90 | <4.90
Cl.FC(F)(F)c1ccc(C2NCc3c(Cl)cccc3-n3cccc32)nn1 (racemic) [Compound 28] | 4.29 | 4.28 | 4.43 | <4.19 | <4.19 | <4.19 | <4.19
Cl.c1ccc2c(c1)CNC(c1cc3ccccc3o1)c1cccn1-2 (racemic) [Compound 29] | 5.30 | 5.30 | 5.70 | <4.19 | <4.19 | <4.19 | 4.80
Cl.Clc1cc(Cl)c2c(c1)-n1cccc1C(c1cc3ccccc3o1)NC2 (racemic) [Compound 31] | 5.59 | 4.87 | 5.31 | <4.19 | <4.19 | <4.19 | <4.19
Cc1cccc2c1CNC(c1cc3ccccc3o1)c1cccn1-2.Cl (racemic) [Compound 32] | 5.70 | 5.70 | 6.10 | 4.35 | <4.19 | <4.19 | 4.39
Clc1cccc2c1CN=C(c1ccc3nc[nH]c3c1)c1cccn1-2 [Compound 205] |  | <4 | <4 | <4 | <4 | <4 | <4
